Values quoted from earlier work as cited in PubChem BioAssay AID1259409 (Chemical Carcinogenesis Research Information System (CCRIS), 2018).

Tested on: rodent chemically induced tumor inhibition, incidence and multiplicity
Experiment: CCRIS tumor inhibitor studies
Details: Carcinogen: BENZO[A]PYRENE, 50-32-8, Dose [Inhibitor]: 0, 10 MG SUSPENDED IN 0.3 ML COTTONSEED OIL 3/WK FOR 4 WK ON DAYS OTHER THAN THE CARCINOGEN TREATMENT, 3 ADDITIONAL DOSE, Route [Inhibitor]: GAVAGE, Species: MOUSE, Strain/Sex: STRAIN-A/FEMALE, Dose [Carcinogen]: 1 MG IN 0.3 ML COTTONSEED OIL 2/WK FOR 4 WK, Promoter: NONE USED

C=CCc1cc(OC)c2c(c1)OCO2
tumour outcome (control, treated, inhibition, significance) (Target Tissue: Type of Lesion: FORESTOMACH: TUMOR): 12/17 (71%), 13/18 (72%), -1%, not significant
tumour outcome (control, treated, inhibition, significance) (Target Tissue: Type of Lesion: LUNG: TUMOR): 17/17 (100%), 18/18 (100%), 0%, not significant
